Assay [1] relates to human melanocytes (FOM71). The assay is described as follows: Apoptosis by FACS (hypodiploid fraction). Type of assay: cell-based. The note with it: melanocytes; SB203580 or NCS (100 ng/ml); 36 h. As to the method: (§1) Treatment and apoptosis studies of stably transfected melanoma cells. Cells were exposed to UVC at 75 J/m^2 as previously described (Ronai, Z., et al., Oncogene 1998; 16:523-531). SB203580 (1-10 μM) (Calbiochem®, San Diego, Calif.), NCS (50-100 ng/ml) and mitomycin C (MMC) (0.2-1 μM) were used to treat melanoma cells. Flow cytometric analysis was performed on a FACSCalibur™ flow cytometer (Becton Dickinson) using CellQuest™ software as described previously (Nicoletti et al., J. Immunol. Methods 1991; 139:271-279). Cells were pelleted and resuspended in 0.5 ml of hypotonic buffer with 0.1% Triton X-100 containing PI (40 μg/ml) and DNase-free RNase A (1 mg/ml). Cells were incubated at 37° C. for 30 min and analyzed on a FACSCalibur™ flow cytometer (Becton Dickinson). The percentage of cells to the left of the diploid G0/1 peak, characteristic of hypodiploid cells that have lost DNA, was defined as the percentage of apoptotic cells. Analysis was performed with light scatter gating. Surface expression of Fas was determined using anti-Fas-PE antibody (PharMingen® CA) and flow cytometric analysis. Cell surface expression is measured as mean fluorescence intensity (MFI).
A general note: Flow cytometry measures light scatter and fluorescence of single cells or particles in a stream.

Another assay relates to LU1205 cells. The assay is described as follows: Apoptosis by FACS (hypodiploid fraction). The assay is classed as cell-based, human. On the set-up: Adriamycin induced programmed cell death, increase compared with control: dose or concentration left out as unconfirmed. As to the method: as §1
The subject of a further assay is FEMX tumor cells. Nature of the assay: Growth of transplanted FEMX tumors in mice. The assay is classed as in vivo. The settings on record: single agent: UCN-01 by gavage, or peptide expressed in tumor cells. As to the method: (§2) Tumor growth and metastasis evaluation in vivo. Cell lines established in culture to constitutively or inducibly express the peptide were injected into mice subcutaneously (S.C.). LU1205, FEMX and SW-1 cells that expressed control or peptide II were trypsinized, resuspended in PBS and injected SC (1×10^6) into 6-7 week old mice in the lower flank. When the tumor reached the size of about 50 mm^3, 5 μM of SB203580 was injected into four areas of the LU1205 tumors every 4 days during a 2-week period. For FEMX tumors UCN-01 (2.5 mg/kg) was fed by gavage twice a day, three times per week for a total of 2 weeks. Tumor growth was monitored every two days. SW-1 cells expressing peptide II under tet-inducible vector were injected SC (1×10^6). When tumors reached a size of about 50 mm^3, the mice received doxycycline in their drinking water ([…]) for a total of 2-4 weeks. At the end of the experiment, the tumors were excised and weighed. The lungs and other organs were subjected to histopathological examination to detect metastatic lesions.

In another assay the test system is LU1205 tumor cells. The assay is described as follows: Growth of transplanted LU1205 tumors in mice. Type of assay: in vivo. The note with it: single agent: inhibitor injected into tumor, or peptide expressed in tumor cells. As to the method: as §2
The test system of another assay is FEMX melanoma cell line. Nature of the assay: Colony forming efficiency (CFE) resistance assay. The note with it: peptide-expressing FEMX vs neo control; UV-treatment; 14 days. The assay is classed as cell-based, human. As to the method:
(§3) Radiation resistance. Cells (500 or 1500 per well) were plated in triplicates on 6 well plates, 24 h before treatment (Ronai et al., Oncogene 1998; 16:523-531). In all cases, plating efficiency was pre-determined so that number of cell plated was normalized respectively. Colonies (greater than 50 cells per clone) were stained with crystal violet solution (3% in 10% methanol and PBS), 14 days After treatment. % of CFE in each treatment group was calculated based on total CFE formed in the respective controls (100%).

Assay [2] deals with LU1205 melanoma cell line. Nature of the assay: Colony forming efficiency (CFE) resistance assay. The assay is classed as cell-based, human. As to the method: as §3
In assay [3] the test system is Adriamycin-resistant MCF7 cell line (MCF7-Adr). The assay is described as follows: Apoptosis by FACS (hypodiploid fraction). The assay is classed as cell-based, human. The note with it: peptide-expressing MCF7-Adr; neo controls 3-fold; 36 h. As to the method:
[Worded in the source for another cell line; this cell line is reported under the same test.] as §1

The test system of another assay is FEMX cells. Nature of the assay: Apoptosis by FACS (hypodiploid fraction). Type of assay: cell-based, human. The note with it: peptide-expressing FEMX; UV-C 75 J/m2; 36 h; neo control 13%. As to the method:
as §1

Assay [4] has as its system MCF7 breast cancer-derived cell line. Nature of the assay: Apoptosis by FACS (hypodiploid fraction). Type of assay: cell-based, human. The settings on record: peptide-expressing MCF7; UV; 36 h. As to the method:
[Worded in the source for another cell line; this cell line is reported under the same test.] as §1

The subject of assay [5] is WM1552 early-phase melanoma cell line. The assay is described as follows: Apoptosis by FACS (hypodiploid fraction). Type of assay: cell-based, human. The note with it: peptide-expressing WM1552; UV-C 75 J/m2; 36 h. As to the method: as §1
The subject of assay [6] is 293T human kidney embryonic cells. Nature of the assay: Apoptosis by FACS (hypodiploid fraction). Type of assay: cell-based. The note with it: peptide-expressing 293T; normal growth conditions. As to the method: [Worded in the source for another cell line; this cell line is reported under the same test.] as §1
The test system of the next assay is Fas. The assay is described as follows: Cell surface expression of Fas by FACS. The assay is classed as cell-based, human. The note with it: peptide-expressing LU1205; control 122. As to the method:
as §1

The next assay has as its system Fas promoter. Nature of the assay: Fas promoter activity (-460 Fas promoter region). Type of assay: cell-based, human. The note with it: peptide-expressing LU1205.
Assay [7] relates to ATF2. The assay is described as follows: ATF2 phosphorylation in peptide-expressing melanoma cells. Type of assay: cell-based, human. The note with it: UV-treated; vs control vector cells.
In assay [8] the test system is ATF2 transcriptional output. The assay is described as follows: Jun-2-Luc activities in peptide IV-expressing cells. The assay is classed as cell-based.
The subject of assay [9] is ATF2. Nature of the assay: GST binding assay. The settings on record: GST pull-down. As to the method:
(§4) Electrophoretic mobility shift assays were performed as described. (Ivanov and Ronada, J Biol Chem 1999; 274(20):14079-89). GST binding assays were performed with GST-peptide II as described (Adler et al., Proc Natl Acad Sci USA 1995; 92 10585-9). SW1 cells expressing control vector or peptide II were subjected to FACS analysis following their incubation with antibodies to the cell surface receptor of FAS as described above.

Another assay has as its system JNK. Nature of the assay: GST binding assay. The settings on record: GST pull-down; greater binding in extracts of UV-treated cells. As to the method:
as §4

No end group written: not given here. A value given as a limit tells only on which side of the number the result lay.

As to neocarzinostatin [NCS], the “changes in degree of apoptosis” value in assay [1] is “neither NCS nor SB203580 elicited any significant changes”.

For the molecule `COc1cccc2c1C(=O)c1c(O)c3c(c(O)c1C2=O)C[C@@](O)(C(=O)CO)C[C@@H]3O[C@H]1C[C@H](N)[C@H](O)[C@H](C)O1` [Adriamycin®, reference compound], the “Adriamycin induced programmed cell death, increase compared with control” value in the assay on LU1205 cells (LU1205, ADR alone) is listed as 2 fold.

For `CN[C@@H]1C[C@H]2O[C@@](C)([C@@H]1OC)n1c3ccccc3c3c4c(c5c6ccccc6n2c5c31)C(=O)N[C@H]4O` [UCN-01, 7-hydroxystaurosporine, reference compound], in the assay with FEMX tumor cells, the tumor cell growth result was “little effect, if any”.

Regarding `C[S+]([O-])c1ccc(-c2nc(-c3ccncc3)c(-c3ccc(F)cc3)[nH]2)cc1` (centres unmarked) [SB203580, reference compound], the “changes in degree of apoptosis” value in assay [1] was “neither NCS nor SB203580 elicited any significant changes”. For the same molecule, the tumor cell growth entry with LU1205 tumor cells is “almost no effect”.

Take “peptide IV: ATF2 peptide of amino acid residues 150-200, expressed from pcDNA3 with HA-penetratin tag (EVPLAQTAQPTSAIVRPASLQVPNVLLTSSDSSVIIQQAVPSPTSSTVITQ; not fully specified; also: HA-penetratin tag, position not given here; UniProt P15336 150-200, looked up, fragment)”: the “increase in the % of CFE” value in the assay on FEMX melanoma cell line is not above 2.5 fold; in assay [2] (peptide-expressing LU1205 vs neo control, UV-treatment, 14 days) it was not above 2.5 fold. In assay [2] (peptide-expressing LU1205, low dose of NCS), the “increase in the resistance to NCS (CFE)” value was approximately 2 fold. The “increase in degree of apoptosis over control neo cells given Adriamycin and verapamil” value with LU1205 cells (peptide-expressing LU1205, Adriamycin + verapamil) is 70%. Besides, the “apoptotic fraction of UV-treated cells” value is 10% in the assay on LU1205 cells (peptide-expressing LU1205, UV-C 75 J/m2, 36 h, neo control 15%) and 8% in the assay with FEMX cells. For the same molecule, in the assay with LU1205 cells (peptide-expressing LU1205, higher doses (10 μM) of SB203580, 36 h), the “increase in the degree of cell death” value is recorded as 2 fold. Further, the “increase in cell death” value with LU1205 cells (peptide-expressing LU1205, low doses of SB203580, 36 h) was “did not alter the degree of cell death”. In addition, the “increase in apoptosis following UV-treatment” value in assay [3] is “greater than 4 fold”. The “decrease in the degree of apoptosis after UV-treatment compared with MCF7 neo control cells” value in assay [4] came to 5 fold. Further, the “sensitization to UV-induced apoptosis” value in assay [5] is “did not cause higher level of apoptosis”. Besides, the “increase in the degree of basal apoptosis” value in assay [6] was 15 fold. Moreover, the “cell surface expression of Fas, mean fluorescence intensity” value with Fas is “did not cause major changes”. Besides, the “Fas promoter mediated transcription” value with Fas promoter is listed as “decrease in Fas promoter mediated transcription”. Moreover, the “ATF2 phosphorylation after UV-treatment” value with ATF2 [7] is recorded as “higher degree of increase in ATF2 phosphorylation”. Besides, the “transcriptional output measured via Jun-2-Luc activities” value in assay [8] is given as “elevated transcriptional output”.

B1: amino acid residues 1-115: larger region of the amino-terminal ATF2 domain (amino acid residues 1-115) (protein, UniProt P15336 1-115, looked up, fragment)
chain: MKFKLHVNSARQYKDLWNMSDDKPFLCTAPGCGQRFTNEDHLAVHKHKHEMTLKFGPARNDSVIVADQTPTPTRFLKNCEEVGLFNELASPFENEFKKASEDDIKKMPLDLSPLA
In the case of B1, the “association with ATF2” value with ATF2 [9] is listed as “weaker association”. Further, the “association with JNK” value in the assay on JNK was “equivalent association”.

For the origin of these results see patent US7935525B2, “Inhibition of ATF2 activity to treat cancer” (Mount Sinai School of Medicine, priority 2001, dated 2011).
